Test results: publication PMC11251039, “Harnessing cholesterol uptake of malaria parasites for therapeutic applications” (EMBO Molecular Medicine, 2024)
“And” between values parts separate entries of the source, which are not always exact repeats. Equal values may be shown once. Read-outs that look alike come from different tables or passages of the source.

Columns and labels:
[1] = test system: asexual P. falciparum 3D7 wild-type parasites; assay: P. falciparum asexual growth inhibition assay (SYBR Safe DNA replication); format: cell-based, Plasmodium falciparum; settings: for P. falciparum asexual growth, percentage of control: replicate values, source data Fig. 2B, listed as HJB8a53; for IC50: Plasmodium falciparum, read-out: IC50, P. falciparum asexual growth inhibition
Method in brief: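 Sorbitol-synchronised ring-stage cultures at 1% parasitaemia and 1% haematocrit were exposed to 2-fold compound dilutions at 37 °C under microaerophilic conditions for 24, 48 or 72 h. Growth was read by SYBR Safe fluorescence of freeze-thaw lysates, with 200 nM chloroquine or artesunate defining background.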

[2] = test system: P. falciparum stage III–IV gametocytes; assay: P. falciparum gametocyte viability assay (MitoTracker, flow cytometry), stage III-IV; format: cell-based, Plasmodium falciparum; settings: 48 h; for Gametocyte stage III-IV viability, percentage of control: replicate values, source data Fig. 2C
Experimental: (§1) Gametocyte assays commenced seven days (stage III–IV) or ten days (stage V) post-invasion. […]
(§2) Plasmodium falciparum Gametocyte Viability Assays:
(§3) Asexual P. falciparum parasites were induced to form gametocytes as described (21).
(§4) Synchronized trophozoite-stage parasites at 2% parasitaemia were incubated overnight and […]
(§5) haematocrit maintained at 4%. On the subsequent day (designated as day 0) of gametocytogenesis, the culture containing early ring-stage parasites was first purified by sorbitol synchronisation to remove asynchronous trophozoites, and passed through a magnetic field in a sterile MACS® column in a SuperMACSTM II magnet to remove remaining late-stage parasites or later-stage gametocytes (negative selection). The culture medium was supplemented with 50 mM N-acetyl-D-glucosamine to inhibit asexual parasite proliferation, and changed daily. Sorbitol treatment was performed on Day 1, 5, and 6 to further remove asexual parasites. Gametocytes were magnetically enriched (positive selection) in a sterile column with a SuperMACSTM II magnet and eluted in culture media with 50 mM N-acetyl-D-glucosamine. These gametocytes were incubated overnight at 37 °C under microaerophilic conditions, and purity was assessed by examination under a light microscope (400× […]
(§6) Gametocyte viability was assessed as described by Ridgway et al. (21) with modifications.
(§7) Compounds or solvent controls (DMSO) were serially diluted across 96-well plates in culture media supplemented with 50 mM N-acetyl-D-glucosamine. Culture media without compound was used as a negative control. […]
(§8) control to determine background gametocyte fluorescence. Stage III-IV gametocytes (Day 7) or stage V (day 10) gametocytes were concentrated and added to the plate with 200 µL per well. The plate was incubated for 48 hours at 37 °C under humid microaerophilic conditions.
(§9) Parasites were then stained with 500 nM MitoTrackerTM Deep Red FM and 5 μg/ml Hoechst […]
(§10) cytometer as described above. […]
(§11) excluded. Live (positive) and dead (negative) gametocytes were differentiated by […]
(§12) percentage of each was calculated. […]

[3] = test system: Toxoplasma gondii tachyzoites (RH strain); assay: Toxoplasma growth inhibition assay (tdTomato fluorescence, in HFF cells); format: cell-based; settings: Toxoplasma gondii, HFF, 72 h, read-out: IC50, T. gondii tachyzoite growth inhibition
Experimental: Fluorescence was measured daily with a fluorescence microplate reader for one week, and the background fluorescence from the time 0 reading was subtracted from all other measurements. […]
Toxoplasma Growth Inhibition Assays:
Growth inhibition was investigated as described previously (26). Fluorescent Toxoplasma gondii parasites were inoculated into an optical bottom 96-well plate containing confluent human foreskin fibroblast (HFF) host cells at a density of 2,000 parasites/well, with a serial dilution of each compound, or culture media/DMSO (0.1% v/v) alone. Plates were measured daily with a FluoStar Optima fluorescence plate reader at 540 nm excitation and 590 nm emission for one week, and the background fluorescence from the time 0 reading was subtracted from all other measurements. […]

[4] = test system: P. falciparum stage V gametocytes; assay: P. falciparum gametocyte viability assay (MitoTracker, flow cytometry), stage V; format: cell-based, Plasmodium falciparum; settings: 48 h; for Gametocyte stage V viability, percentage of control: replicate values, source data Fig. 2D
Experimental: as §1, §2, §3, §4, §5, §6, §7, §8, §9, §10, §11, §12

[5] = 1.562500000 uM, listed as HJB8a53, 1.5625 µM
[6] = 50.000000000 uM, listed as HJB8a53, 50 µM
[7] = 100.000000000 uM, listed as HJB8a53, 100 µM

CC(C)OC(=O)CCC(=O)O[C@H]1CC[C@H]2[C@@H]3CC=C4C[C@@H](O)CC[C@]4(C)[C@H]3CC[C@]12C [C-17-link]
P. falciparum asexual growth, percentage of control ([1]; 1.562500000 uM, 24 h): 108.2% and 98.65% and 104.4% and 77.73% and 107.4% and 72.24% and 105.4% and 89.91% and 101.4%
P. falciparum asexual growth, percentage of control ([1]; 3.125000000 uM, 24 h): 87.28% and 79.93% and 102.9% and 88.97% and 110.9% and 91.2% and 98.89% and 92.59% and 99.55%
P. falciparum asexual growth, percentage of control ([1]; 6.250000000 uM, 24 h): 91.48% and 91.92% and 90.32% and 56.7% and 84% and 91.24% and 89.81% and 87.22% and 88.93%
P. falciparum asexual growth, percentage of control ([1]; 12.500000000 uM, 24 h): 92.85% and 68.5% and 79.1% and 86.73% and 62.26% and 77.95% and 77.18% and 79.4% and 77.07%
P. falciparum asexual growth, percentage of control ([1]; 25.000000000 uM, 24 h): 63.84% and 71.98% and 51.99% and 71.68% and 75.89% and 90.82% and 60.89% and 60.24% and 75.04%
P. falciparum asexual growth, percentage of control ([1]; 50.000000000 uM, 24 h): 21.83% and 36.37% and 18.23% and 26.53% and 42.29% and 44.3% and 28.27% and 41.39% and 35.03%
P. falciparum asexual growth, percentage of control ([1]; 100.000000000 uM, 24 h): 3.756% and 9.306% and -2.555% and -31.33% and 5.372% and 1.633% and -19.35% and 8.501% and 11.78%
IC50 ([1]; 3D7, 24 h, 24 h, starting at ring stages): 31.6 µM
IC50 ([1]; 3D7, 48 h, 48 h): 40.2 µM
IC50 ([1]; 3D7, 72 h, 72 h): 30.3 µM
Gametocyte stage III-IV viability, percentage of control [2, 5]: 101% and 107% and 102.8% and 99.18% (2×) and 99.4% and 102.9% and 101.9% and 93.96% and 97.92% and 98.49%
Gametocyte stage III-IV viability, percentage of control ([2]; 3.125000000 uM, listed as HJB8a53, 3.125 µM): 105.6% and 102% and 105.7% and 98.51% and 101.4% and 101.9% (2×) and 99.18% and 90.27% and 91.12% and 94.52%
Gametocyte stage III-IV viability, percentage of control ([2]; 6.250000000 uM, listed as HJB8a53, 6.25 µM): 99.6% and 103.8% and 106.8% and 101.2% and 104.3% and 103.3% and 101% and 100.8% and 93.96% and 96.79% and 98.77%
Gametocyte stage III-IV viability, percentage of control ([2]; 12.500000000 uM, listed as HJB8a53, 12.5 µM): 107.8% and 104% and 107.2% and 101.4% and 104.1% (2×) and 102.9% and 101% and 94.24% and 97.07% and 99.62%
Gametocyte stage III-IV viability, percentage of control ([2]; 25.000000000 uM, listed as HJB8a53, 25 µM): 98.8% and 98.2% and 107.2% and 103.9% and 105.9% and 102.5% and 102.3% and 103.5% and 88.86% and 88.57% and 89.42%
Gametocyte stage III-IV viability, percentage of control [2, 6]: 91.61% and 97.2% and 99.4% and 103.4% and 99.63% and 101% and 91.35% and 89.5% and 90.53% and 84.89% and 81.49% and 79.23%
Gametocyte stage III-IV viability, percentage of control [2, 7]: 87.57% and 87.36% and 83.7% and 97.18% and 90.82% and 86.32% and 9.91% and 5.752% and 9.494% and 21.99% and 34.89% and 34.32%
viability at 1.5625 µM ([2]; Plasmodium falciparum, read-out: Gametocyte stage III-IV viability, percentage of control, 1.562500000 uM, 48 h, replicate values, source data Fig. 2C): 94.6%
viability at 3.125 µM ([2]; Plasmodium falciparum, read-out: Gametocyte stage III-IV viability, percentage of control, 3.125000000 uM, 48 h, replicate values, source data Fig. 2C): 94.6%
viability at 6.25 µM ([2]; Plasmodium falciparum, read-out: Gametocyte stage III-IV viability, percentage of control, 6.250000000 uM, 48 h, replicate values, source data Fig. 2C): 98.6%
viability at 12.5 µM ([2]; Plasmodium falciparum, read-out: Gametocyte stage III-IV viability, percentage of control, 12.500000000 uM, 48 h, replicate values, source data Fig. 2C): 99.8%
viability at 25 µM ([2]; Plasmodium falciparum, read-out: Gametocyte stage III-IV viability, percentage of control, 25.000000000 uM, 48 h, replicate values, source data Fig. 2C): 92.6%
IC50 ([2]; Plasmodium falciparum, read-out: IC50, P. falciparum gametocyte stage III-IV inhibition, 48 h): > 100 µM
IC50 [3]: 24.2 µM
Gametocyte stage V viability, percentage of control [4, 5]: 100.2% and 98.56% and 92.55% and 112.8% and 114.5% and 98.06% and 102.7% and 106.9% and 101%
Gametocyte stage V viability, percentage of control [4, 6]: 69.57% and 81.64% and 85.27%
Gametocyte stage V viability, percentage of control [4, 7]: 29.13% and 28.63% and 16.49% and 6.64% and 5.637% and 3.021% and 27.44% and 23.3% and 20.39%
viability at 6.25 µM ([4]; Plasmodium falciparum, read-out: Gametocyte stage V viability, percentage of control, 6.250000000 uM, 48 h, replicate values, source data Fig. 2D): 102%
viability at 12.5 µM ([4]; Plasmodium falciparum, read-out: Gametocyte stage V viability, percentage of control, 12.500000000 uM, 48 h, replicate values, source data Fig. 2D): 96.4%
IC50 ([4]; Plasmodium falciparum, read-out: IC50, P. falciparum gametocyte stage V inhibition): 69.9 µM
